pIC50: −log10 of the molar value. Where two headings read alike, the source gives them in different places.
Experiments:
EGFR del19/T790M/C797S = EGFR del19/T790M/C797S (Homo sapiens, UniProt P00533, C797S/DEL746-750/T790M); test: Biochemical EGFR kinase assay (Lance Ultra TR-FRET), triple mutant del19/T790M/C797S
Method in brief: (§1)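 Kinase activity is measured by TR-FRET phosphopeptide detection. Compounds span 0.003 μM to 10 μM; the 1 h reaction at room temperature is quenched with EDTA, then labelled antibody (2 nM) is incubated 60 min before reading.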

EGFR L858R/C797S = EGFR L858R/C797S (Homo sapiens, UniProt P00533, C797S/L858R); test: Biochemical EGFR kinase assay (Lance Ultra TR-FRET), double mutant L858R/C797S
Method in brief: as §1

EGFR del19/C797S = EGFR del19/C797S (Homo sapiens, UniProt P00533, C797S/DEL746-750); test: Biochemical EGFR kinase assay (Lance Ultra TR-FRET), double mutant del19/C797S
Method in brief: as §1

EGFR wildtype = EGFR wildtype (Homo sapiens, UniProt P00533); test: Biochemical EGFR kinase assay (Lance Ultra TR-FRET), wildtype
Method in brief: as §1

EGFR L858R/T790M/C797S = EGFR L858R/T790M/C797S (Homo sapiens, UniProt P00533, C797S/L858R/T790M); test: Biochemical EGFR kinase assay (Lance Ultra TR-FRET), triple mutant L858R/T790M/C797S
Method in brief: as §1

[1] = ATP at Km, read-out: IC50 del19/T790M/C797S, Km ATP
[2] = ATP at Km, read-out: IC50 L858R/C797S, Km ATP
[3] = ATP at Km, read-out: IC50 del19/C797S, Km ATP
[4] = ATP at Km, read-out: IC50 WT, Km ATP
[5] = ATP at Km, read-out: IC50 L858R/T790M/C797S, Km ATP
[6] = IC50 del19/T790M/C797S, 100 μM ATP
[7] = IC50 L858R/T790M/C797S, 100 μM ATP

Sequence of EGFR del19/C797S (P00533 with tags, fused parts or gaps DEL746-750/C797S): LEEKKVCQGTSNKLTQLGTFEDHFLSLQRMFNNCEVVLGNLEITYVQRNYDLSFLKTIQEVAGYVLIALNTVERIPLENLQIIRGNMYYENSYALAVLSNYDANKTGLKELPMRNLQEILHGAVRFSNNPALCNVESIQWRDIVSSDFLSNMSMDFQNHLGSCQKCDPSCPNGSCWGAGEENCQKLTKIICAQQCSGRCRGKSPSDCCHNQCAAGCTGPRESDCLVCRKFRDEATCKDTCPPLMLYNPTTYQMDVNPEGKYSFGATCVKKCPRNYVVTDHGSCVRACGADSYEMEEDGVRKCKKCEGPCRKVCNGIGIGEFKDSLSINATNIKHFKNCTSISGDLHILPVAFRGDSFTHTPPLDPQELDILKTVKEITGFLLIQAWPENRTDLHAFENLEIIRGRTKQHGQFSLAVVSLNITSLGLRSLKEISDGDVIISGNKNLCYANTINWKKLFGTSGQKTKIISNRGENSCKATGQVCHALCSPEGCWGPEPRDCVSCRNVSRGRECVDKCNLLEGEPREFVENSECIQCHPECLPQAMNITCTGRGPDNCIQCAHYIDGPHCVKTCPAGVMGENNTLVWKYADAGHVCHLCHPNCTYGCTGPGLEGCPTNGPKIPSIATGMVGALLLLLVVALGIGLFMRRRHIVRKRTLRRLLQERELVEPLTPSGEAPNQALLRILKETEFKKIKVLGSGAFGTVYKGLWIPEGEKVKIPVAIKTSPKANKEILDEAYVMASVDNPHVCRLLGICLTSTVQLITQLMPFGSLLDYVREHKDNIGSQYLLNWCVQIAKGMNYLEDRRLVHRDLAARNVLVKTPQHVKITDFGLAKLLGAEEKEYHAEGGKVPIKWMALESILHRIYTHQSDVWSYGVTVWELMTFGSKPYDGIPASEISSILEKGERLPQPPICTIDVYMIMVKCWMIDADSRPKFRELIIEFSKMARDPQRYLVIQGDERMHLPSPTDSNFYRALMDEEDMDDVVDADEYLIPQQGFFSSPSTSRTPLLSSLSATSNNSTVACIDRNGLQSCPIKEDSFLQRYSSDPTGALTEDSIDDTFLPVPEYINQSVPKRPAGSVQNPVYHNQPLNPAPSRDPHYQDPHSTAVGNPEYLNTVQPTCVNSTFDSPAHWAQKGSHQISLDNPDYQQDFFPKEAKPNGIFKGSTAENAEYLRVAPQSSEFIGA
Sequence of EGFR del19/T790M/C797S (P00533 with tags, fused parts or gaps DEL746-750/T790M/C797S): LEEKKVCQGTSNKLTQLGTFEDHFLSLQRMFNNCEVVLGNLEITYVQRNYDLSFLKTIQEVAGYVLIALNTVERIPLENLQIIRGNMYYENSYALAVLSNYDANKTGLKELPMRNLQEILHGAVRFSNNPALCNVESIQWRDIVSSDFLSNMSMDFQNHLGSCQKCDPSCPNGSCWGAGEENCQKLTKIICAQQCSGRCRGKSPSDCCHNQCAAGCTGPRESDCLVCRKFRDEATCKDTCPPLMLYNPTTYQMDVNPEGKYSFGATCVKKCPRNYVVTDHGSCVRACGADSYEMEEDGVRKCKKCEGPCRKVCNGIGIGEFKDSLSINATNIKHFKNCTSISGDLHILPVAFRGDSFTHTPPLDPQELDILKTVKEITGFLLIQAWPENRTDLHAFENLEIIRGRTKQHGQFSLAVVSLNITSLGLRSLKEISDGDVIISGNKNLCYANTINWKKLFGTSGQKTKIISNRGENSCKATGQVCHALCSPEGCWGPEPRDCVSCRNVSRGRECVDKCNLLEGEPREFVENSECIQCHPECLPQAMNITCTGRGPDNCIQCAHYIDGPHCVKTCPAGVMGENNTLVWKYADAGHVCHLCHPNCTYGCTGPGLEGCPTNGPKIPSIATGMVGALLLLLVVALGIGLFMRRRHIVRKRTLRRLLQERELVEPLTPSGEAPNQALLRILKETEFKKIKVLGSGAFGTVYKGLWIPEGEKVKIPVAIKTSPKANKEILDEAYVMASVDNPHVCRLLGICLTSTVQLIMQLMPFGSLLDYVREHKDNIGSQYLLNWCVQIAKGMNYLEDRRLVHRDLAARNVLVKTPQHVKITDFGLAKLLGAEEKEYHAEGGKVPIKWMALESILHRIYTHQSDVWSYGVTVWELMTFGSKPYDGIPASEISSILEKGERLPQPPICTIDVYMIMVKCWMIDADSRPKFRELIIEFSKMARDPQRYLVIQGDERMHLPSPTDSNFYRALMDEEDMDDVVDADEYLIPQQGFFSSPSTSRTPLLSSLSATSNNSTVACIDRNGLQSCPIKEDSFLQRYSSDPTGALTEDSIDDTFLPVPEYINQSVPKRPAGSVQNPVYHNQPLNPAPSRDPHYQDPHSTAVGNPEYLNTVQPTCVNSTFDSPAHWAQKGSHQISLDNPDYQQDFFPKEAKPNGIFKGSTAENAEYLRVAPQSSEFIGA
Sequence of EGFR wildtype (P00533 25-1210): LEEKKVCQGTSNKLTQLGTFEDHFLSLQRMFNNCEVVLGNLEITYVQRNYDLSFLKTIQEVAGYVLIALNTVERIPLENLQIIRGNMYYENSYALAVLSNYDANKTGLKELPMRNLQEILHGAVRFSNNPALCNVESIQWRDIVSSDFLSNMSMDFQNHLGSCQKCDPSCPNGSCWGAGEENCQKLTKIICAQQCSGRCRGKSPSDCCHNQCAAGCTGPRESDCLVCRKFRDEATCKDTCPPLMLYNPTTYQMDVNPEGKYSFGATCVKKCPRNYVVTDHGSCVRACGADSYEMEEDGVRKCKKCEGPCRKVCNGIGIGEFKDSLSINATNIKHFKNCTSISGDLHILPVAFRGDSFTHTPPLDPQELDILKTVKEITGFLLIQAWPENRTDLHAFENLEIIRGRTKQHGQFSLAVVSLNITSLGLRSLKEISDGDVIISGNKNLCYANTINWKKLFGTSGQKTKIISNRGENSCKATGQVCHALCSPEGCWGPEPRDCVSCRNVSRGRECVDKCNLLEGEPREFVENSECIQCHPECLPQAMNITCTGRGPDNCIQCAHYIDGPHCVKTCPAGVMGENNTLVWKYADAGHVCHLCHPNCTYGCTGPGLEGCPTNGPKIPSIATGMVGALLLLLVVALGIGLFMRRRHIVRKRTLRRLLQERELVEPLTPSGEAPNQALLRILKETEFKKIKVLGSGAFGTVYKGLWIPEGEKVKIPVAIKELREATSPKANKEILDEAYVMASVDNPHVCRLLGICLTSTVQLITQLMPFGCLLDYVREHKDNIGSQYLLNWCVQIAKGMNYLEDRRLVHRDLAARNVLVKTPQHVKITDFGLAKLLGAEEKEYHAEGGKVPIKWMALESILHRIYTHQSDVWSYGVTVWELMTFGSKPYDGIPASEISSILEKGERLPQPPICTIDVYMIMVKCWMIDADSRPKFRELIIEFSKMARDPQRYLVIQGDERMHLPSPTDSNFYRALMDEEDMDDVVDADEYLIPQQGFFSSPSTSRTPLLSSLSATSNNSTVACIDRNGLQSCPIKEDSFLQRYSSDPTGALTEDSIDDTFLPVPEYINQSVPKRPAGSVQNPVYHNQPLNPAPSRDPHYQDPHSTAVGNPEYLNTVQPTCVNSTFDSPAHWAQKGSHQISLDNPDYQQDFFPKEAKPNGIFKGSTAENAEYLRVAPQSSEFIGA
Sequence of EGFR L858R/T790M/C797S (P00533 25-1210 T790M/C797S/L858R): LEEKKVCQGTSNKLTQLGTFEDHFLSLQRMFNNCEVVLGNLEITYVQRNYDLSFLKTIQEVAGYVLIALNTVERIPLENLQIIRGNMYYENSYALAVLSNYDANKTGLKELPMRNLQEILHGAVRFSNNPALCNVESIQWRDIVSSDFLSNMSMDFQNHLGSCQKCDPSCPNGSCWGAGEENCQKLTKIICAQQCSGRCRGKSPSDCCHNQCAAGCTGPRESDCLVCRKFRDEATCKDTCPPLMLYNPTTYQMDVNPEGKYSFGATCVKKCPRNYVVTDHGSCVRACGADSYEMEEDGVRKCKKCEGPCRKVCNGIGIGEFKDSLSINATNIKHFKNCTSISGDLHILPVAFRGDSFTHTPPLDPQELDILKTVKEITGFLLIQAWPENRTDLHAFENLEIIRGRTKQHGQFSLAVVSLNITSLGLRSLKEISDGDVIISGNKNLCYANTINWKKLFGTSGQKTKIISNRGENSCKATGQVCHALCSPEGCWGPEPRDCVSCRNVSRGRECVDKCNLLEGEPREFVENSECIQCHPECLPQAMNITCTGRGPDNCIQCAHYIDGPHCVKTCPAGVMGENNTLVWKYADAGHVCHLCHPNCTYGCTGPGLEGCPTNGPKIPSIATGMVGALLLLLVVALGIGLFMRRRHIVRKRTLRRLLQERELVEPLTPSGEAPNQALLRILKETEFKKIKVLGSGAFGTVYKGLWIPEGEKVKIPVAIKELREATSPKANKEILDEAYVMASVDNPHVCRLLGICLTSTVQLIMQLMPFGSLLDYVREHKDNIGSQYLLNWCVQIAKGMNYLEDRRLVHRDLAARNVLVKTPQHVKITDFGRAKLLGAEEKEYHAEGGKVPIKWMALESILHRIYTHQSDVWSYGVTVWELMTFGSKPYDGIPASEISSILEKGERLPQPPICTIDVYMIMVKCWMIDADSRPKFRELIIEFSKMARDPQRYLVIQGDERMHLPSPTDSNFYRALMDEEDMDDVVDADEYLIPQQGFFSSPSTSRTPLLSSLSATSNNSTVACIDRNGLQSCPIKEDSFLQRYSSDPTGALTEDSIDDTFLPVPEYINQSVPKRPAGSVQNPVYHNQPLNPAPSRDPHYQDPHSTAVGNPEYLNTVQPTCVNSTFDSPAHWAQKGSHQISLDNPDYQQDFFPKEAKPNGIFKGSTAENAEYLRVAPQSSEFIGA

pIC50 (EGFR del19/T790M/C797S; [1])	pIC50 (EGFR L858R/C797S; [2])	pIC50 (EGFR del19/C797S; [3])	pIC50 (EGFR wildtype; [4])	pIC50 (EGFR L858R/T790M/C797S; [5])	pIC50 (EGFR del19/T790M/C797S; [6])	pIC50 (EGFR L858R/C797S; IC50 L858R/C797S, 100 μM ATP)	pIC50 (EGFR del19/C797S; IC50 del19/C797S, 100 μM ATP)	pIC50 (EGFR wildtype; IC50 WT, 100 μM ATP)	pIC50 (EGFR L858R/T790M/C797S; [7])	IC50 (EGFR del19/T790M/C797S; Km ATP, read-out: IC50 del19/T790M/C797S (nM) Km ATP) [nM]	IC50 (EGFR L858R/C797S; IC50 L858R/C797S (nM) 100 μM ATP, 100 μM ATP) [nM]	IC50 (EGFR L858R/C797S; Km ATP, read-out: IC50 L858R/C797S (nM) Km ATP) [nM]	IC50 (EGFR del19/C797S; IC50 del19/C797S (nM) 100 μM ATP, 100 μM ATP) [nM]	IC50 (EGFR del19/C797S; Km ATP, read-out: IC50 del19/C797S (nM) Km ATP) [nM]	IC50 (EGFR wildtype; IC50 WT (nM) 100 μM ATP, 100 μM ATP) [nM]	IC50 (EGFR wildtype; Km ATP, read-out: IC50 WT (nM) Km ATP) [nM]	IC50 (EGFR L858R/T790M/C797S; IC50 L858R/T790M/C797S (nM) 100 μM ATP, 100 μM ATP) [nM]	IC50 (EGFR L858R/T790M/C797S; Km ATP, read-out: IC50 L858R/T790M/C797S (nM) Km ATP) [nM]	Compound
7.70	7.81	6.87	6.13	8.23	–	–	–	–	–	–	–	–	–	–	–	–	–	–	CC(C)(F)c1ccc(-c2cnc(Nc3ccnc(-c4cnn(S(=O)(=O)C5CC5)c4)n3)cc2NC2CCC(F)(F)CC2)nc1 [Example 240, N^6′-(2-(1-(Cyclopropylsulfonyl)-1H-pyrazol-4-yl)pyrimidin-4-yl)-N^4′-(4,4-difluorocyclohexyl)-5-(2-fluoropropan-2-yl)-[2,3′-bipyridine]-4′,6′-diamine]
7.48	7.40	7.90	6.77	7.73	–	–	–	–	–	–	–	–	–	–	–	–	–	–	CC(O)(c1ccc(-c2cnc(Nc3ccnc(-c4cnn(S(=O)(=O)C5CC5)c4)n3)cc2NC2CCC(F)CC2)nc1)C(F)(F)F (stereo not shown) [Example 266, 2-(6′-((2-(1-(Cyclopropylsulfonyl)-1H-pyrazol-4-yl)pyrimidin-4-yl)amino)-4′-((4-fluorocyclohexyl)amino)-[2,3′-bipyridin]-5-yl)-1,1,1-trifluoropropan-2-ol]

Further lines, the compound ahead of its results:

Compound	pIC50 (EGFR del19/T790M/C797S; [1])	pIC50 (EGFR L858R/C797S; [2])	pIC50 (EGFR del19/C797S; [3])	pIC50 (EGFR wildtype; [4])	pIC50 (EGFR L858R/T790M/C797S; [5])	pIC50 (EGFR del19/T790M/C797S; [6])	pIC50 (EGFR L858R/C797S; IC50 L858R/C797S, 100 μM ATP)	pIC50 (EGFR del19/C797S; IC50 del19/C797S, 100 μM ATP)	pIC50 (EGFR wildtype; IC50 WT, 100 μM ATP)	pIC50 (EGFR L858R/T790M/C797S; [7])	IC50 (EGFR del19/T790M/C797S; Km ATP, read-out: IC50 del19/T790M/C797S (nM) Km ATP) [nM]	IC50 (EGFR L858R/C797S; IC50 L858R/C797S (nM) 100 μM ATP, 100 μM ATP) [nM]	IC50 (EGFR L858R/C797S; Km ATP, read-out: IC50 L858R/C797S (nM) Km ATP) [nM]	IC50 (EGFR del19/C797S; IC50 del19/C797S (nM) 100 μM ATP, 100 μM ATP) [nM]	IC50 (EGFR del19/C797S; Km ATP, read-out: IC50 del19/C797S (nM) Km ATP) [nM]	IC50 (EGFR wildtype; IC50 WT (nM) 100 μM ATP, 100 μM ATP) [nM]	IC50 (EGFR wildtype; Km ATP, read-out: IC50 WT (nM) Km ATP) [nM]	IC50 (EGFR L858R/T790M/C797S; IC50 L858R/T790M/C797S (nM) 100 μM ATP, 100 μM ATP) [nM]	IC50 (EGFR L858R/T790M/C797S; Km ATP, read-out: IC50 L858R/T790M/C797S (nM) Km ATP) [nM]
CC1CCN(S(=O)(=O)c2ccc(-c3cnc(Nc4ccnc(-c5cnn(S(=O)(=O)C6CC6)c5)n4)cc3N[C@H]3CC[C@@H](C(C)(C)O)CC3)nc2)CC1 [Example 187, 2-((1s,4s)-4-((6′-((2-(1-(Cyclopropylsulfonyl)-1H-pyrazol-4-yl)pyrimidin-4-yl)amino)-5-((4-methylpiperidin-1-yl)sulfonyl)-[2,3′-bipyridin]-4′-yl)amino)cyclohexyl)propan-2-ol]	–	–	–	–	–	6.62	5.71	6.75	< 5.00	7.01	–	–	–	–	–	–	–	–	–
CN(C)C[C@H]1CC[C@@H](Nc2cc(Nc3ccnc(-c4cnn(S(=O)(=O)C5CC5)c4)n3)ncc2-c2ccc(OC(F)(F)F)cn2)CC1 [Example 197, N^6′-(2-(1-(Cyclopropylsulfonyl)-1H-pyrazol-4-yl)pyrimidin-4-yl)-N^4′-((1s,4s)-4-((dimethylamino)methyl)cyclohexyl)-5-(trifluoromethoxy)-[2,3′-bipyridine]-4′,6′-diamine]	9.22	9.52	9.00	8.52	9.52	9.30	8.28	8.96	5.91	9.30	–	–	–	–	–	–	–	–	–
C[C@]1(O)CC[C@@H](Nc2cc(Nc3ccnc(-c4cnn(S(=O)(=O)C5CC5)c4)n3)ncc2-c2cc(N3CCC(F)(F)CC3)ccn2)CC1 [Example 102, (1s,4s)-4-((6′-((2-(1-(Cyclopropylsulfonyl)-1H-pyrazol-4-yl)pyrimidin-4-yl)amino)-4-(4,4-difluoropiperidin-1-yl)-[2,3′-bipyridin]-4′-yl)amino)-1-methylcyclohexan-1-ol]	–	–	–	–	–	–	–	–	–	–	2.8	29.9	8.2	9.1	4.6	> 10000	21.3	1	0.7
